Values joined by “and” are separate entries in the source; they are usually repeats but may differ in a detail not shown here. Equal entries are not always repeated.
Key:
[1] = concentration where the cooling effect could be clearly recognized; cited from earlier work
panelists = experiment: Sensory evaluation of cooling sensation after brushing with coolant dentifrice followed by aqueous rinse with or without calcium; format: in vivo, human; set-up: key to Cooling Sensation Score: 0 = no cooling, 60 = intense cooling; 7.5 = definite cooling; details: for Cooling Sensation Score: 0-60 scale
Method: Sensory evaluation studies of coolant activity were conducted using a methodology patterned after the techniques described in M. C. Meilgaard, et al., Sensory Evaluation Techniques, 4th Ed. (2007). In one study, a panel of 11 trained sensory experts evaluated cooling sensation experienced after brushing with a dentifrice containing coolant(s) followed by rinsing with an aqueous rinse containing a calcium ion source. Panelists brushed teeth with 1.5 grams of a test dentifrice (containing coolant) or control (no coolant) and then expectorated. After brush expectoration, panelists evaluated cooling intensity, assigning a number between 0 (no cooling) to 60 (intense cooling). Panelists then rinsed mouth with 15 ml. of an aqueous rinse (with or without calcium) and expectorated. After rinse expectoration, panelists evaluated cooling intensity according to the same 0 to 60 scale. Evaluations were conducted at 5, 15, 30, 45, 60 minute, etc. time points. At each evaluation, panelists were instructed to breathe in through pursed lips and evaluate overall cooling sensation. In this test, a numerical score of 7.5 indicates meaningful or definite cooling.

human TRPM8 = human TRPM8 (Homo sapiens, UniProt Q7Z2W7); experiment: FLIPR intracellular calcium flux (Fluo-4) in HEK cells stably transfected with human TRPM8; details: HEK cells with human TRPM8
Sequence of human TRPM8 (Q7Z2W7 whole entry): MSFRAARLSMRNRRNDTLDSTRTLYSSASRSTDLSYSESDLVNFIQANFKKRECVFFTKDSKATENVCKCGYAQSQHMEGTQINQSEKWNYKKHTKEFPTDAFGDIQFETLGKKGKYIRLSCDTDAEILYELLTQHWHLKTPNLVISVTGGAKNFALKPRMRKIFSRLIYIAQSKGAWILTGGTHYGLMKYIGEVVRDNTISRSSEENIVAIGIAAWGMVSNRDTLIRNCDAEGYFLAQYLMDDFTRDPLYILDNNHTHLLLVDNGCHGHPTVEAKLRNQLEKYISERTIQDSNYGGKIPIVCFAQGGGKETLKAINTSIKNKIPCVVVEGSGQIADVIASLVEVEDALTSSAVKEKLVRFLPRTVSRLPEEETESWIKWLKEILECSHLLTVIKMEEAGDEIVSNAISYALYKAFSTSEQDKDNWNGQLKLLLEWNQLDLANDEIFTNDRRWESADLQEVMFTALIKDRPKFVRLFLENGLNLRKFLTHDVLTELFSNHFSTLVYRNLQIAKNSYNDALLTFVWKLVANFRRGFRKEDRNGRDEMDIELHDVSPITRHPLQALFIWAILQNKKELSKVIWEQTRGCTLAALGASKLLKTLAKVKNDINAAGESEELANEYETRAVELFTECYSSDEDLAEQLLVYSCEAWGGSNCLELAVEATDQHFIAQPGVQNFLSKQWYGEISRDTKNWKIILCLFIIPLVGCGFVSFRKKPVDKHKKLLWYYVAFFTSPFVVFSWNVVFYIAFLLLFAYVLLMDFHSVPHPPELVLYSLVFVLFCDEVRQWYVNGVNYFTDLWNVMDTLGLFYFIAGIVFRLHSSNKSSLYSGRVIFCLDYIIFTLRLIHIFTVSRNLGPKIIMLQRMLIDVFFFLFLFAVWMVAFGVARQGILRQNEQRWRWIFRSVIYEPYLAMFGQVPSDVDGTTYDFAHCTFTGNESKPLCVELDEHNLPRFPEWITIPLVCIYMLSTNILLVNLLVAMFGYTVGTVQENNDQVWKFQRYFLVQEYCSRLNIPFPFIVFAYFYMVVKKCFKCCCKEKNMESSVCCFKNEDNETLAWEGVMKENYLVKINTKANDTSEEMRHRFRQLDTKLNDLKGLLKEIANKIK

CC(C)[C@H]1CC[C@H](C)C[C@H]1O [l-neomenthol]
Cooling threshold [1]: about 3,000 ppb

CC1CCC(C(C)C)C(O)C1 (stereo not drawn) [Menthol, menthol]
Cooling Sensation Score (panelists; 1500 ppm coolant in paste, rinse Ca+2 542 ppm, 0 min.): 18.0
Cooling Sensation Score (panelists; 1500 ppm coolant in paste, rinse Ca+2 542 ppm, 5 min.): 17.5
Cooling Sensation Score (panelists; 1500 ppm coolant in paste, rinse Ca+2 542 ppm, 15 min.): 4.4
Cooling Sensation Score (panelists; 1500 ppm coolant in paste, rinse Ca+2 542 ppm, 30 min.): 0
Cooling Sensation Score (panelists; 1500 ppm coolant in paste, rinse Ca+2 542 ppm, 45 min.): 0
Cooling Sensation Score (panelists; 1500 ppm coolant in paste, rinse Ca+2 542 ppm, 60 min.): 0
Calcium enhancing effect on cooling (panelists; 1500 ppm level of coolant in dentifrice): calcium enhancing effect was not observed
Cooling threshold [1]: about 800 ppb

CC(C)[C@@H]1CC[C@@H](C)C[C@@H]1O [d-neomenthol]
Cooling threshold [1]: about 25,000 ppb

CC1CCC(C(C)C)C(C(=O)Nc2ccc(CC#N)cc2)C1 (stereo not drawn) [Composition G-180, N-(4-cyanomethylphenyl)-ρ-menthanecarboxamide]
Cooling Sensation Score (panelists; 75 ppm coolant in paste, rinse Ca+2 0 ppm, 0 min.): 21.1
Cooling Sensation Score (panelists; 75 ppm coolant in paste, rinse Ca+2 0 ppm, 5 min.): 23.7
Cooling Sensation Score (panelists; 75 ppm coolant in paste, rinse Ca+2 0 ppm, 15 min.): 22.9
Cooling Sensation Score (panelists; 75 ppm coolant in paste, rinse Ca+2 0 ppm, 30 min.): 15.0
Cooling Sensation Score (panelists; 75 ppm coolant in paste, rinse Ca+2 0 ppm, 45 min.): 11.0
Cooling Sensation Score (panelists; 75 ppm coolant in paste, rinse Ca+2 0 ppm, 60 min.): 5.8
Cooling Sensation Score (panelists; 75 ppm coolant in paste, rinse Ca+2 271 ppm, 0 min.): 17.5
Cooling Sensation Score (panelists; 75 ppm coolant in paste, rinse Ca+2 271 ppm, 5 min.): 18.3
Cooling Sensation Score (panelists; 75 ppm coolant in paste, rinse Ca+2 271 ppm, 15 min.): 20.7
Cooling Sensation Score (panelists; 75 ppm coolant in paste, rinse Ca+2 271 ppm, 30 min.): 16.8
Cooling Sensation Score (panelists; 75 ppm coolant in paste, rinse Ca+2 271 ppm, 45 min.): 13.3
Cooling Sensation Score (panelists; 75 ppm coolant in paste, rinse Ca+2 271 ppm, 60 min.): 8.4
Cooling Sensation Score (panelists; 75 ppm coolant in paste, rinse Ca+2 542 ppm, 0 min.): 18.8
Cooling Sensation Score (panelists; 75 ppm coolant in paste, rinse Ca+2 542 ppm, 5 min.): 25.0
Cooling Sensation Score (panelists; 75 ppm coolant in paste, rinse Ca+2 542 ppm, 15 min.): 29.2
Cooling Sensation Score (panelists; 75 ppm coolant in paste, rinse Ca+2 542 ppm, 30 min.): 24.4
Cooling Sensation Score (panelists; 75 ppm coolant in paste, rinse Ca+2 542 ppm, 45 min.): 18.6
Cooling Sensation Score (panelists; 75 ppm coolant in paste, rinse Ca+2 542 ppm, 60 min.): 14.1
Cooling Sensation Score (panelists; 150 ppm coolant in paste, rinse Ca+2 0 ppm, 0 min.): 16.7
Cooling Sensation Score (panelists; 150 ppm coolant in paste, rinse Ca+2 0 ppm, 5 min.): 16.0
Cooling Sensation Score (panelists; 150 ppm coolant in paste, rinse Ca+2 0 ppm, 15 min.): 25.7
Cooling Sensation Score (panelists; 150 ppm coolant in paste, rinse Ca+2 0 ppm, 30 min.): 19.5
Cooling Sensation Score (panelists; 150 ppm coolant in paste, rinse Ca+2 0 ppm, 45 min.): 10.0
Cooling Sensation Score (panelists; 150 ppm coolant in paste, rinse Ca+2 0 ppm, 60 min.): 1.5
Cooling Sensation Score (panelists; 150 ppm coolant in paste, rinse Ca+2 271 ppm, 0 min.): 12.1
Cooling Sensation Score (panelists; 150 ppm coolant in paste, rinse Ca+2 271 ppm, 5 min.): 22.5
Cooling Sensation Score (panelists; 150 ppm coolant in paste, rinse Ca+2 271 ppm, 15 min.): 26.0
Cooling Sensation Score (panelists; 150 ppm coolant in paste, rinse Ca+2 271 ppm, 30 min.): 17.1
Cooling Sensation Score (panelists; 150 ppm coolant in paste, rinse Ca+2 271 ppm, 45 min.): 11.2
Cooling Sensation Score (panelists; 150 ppm coolant in paste, rinse Ca+2 271 ppm, 60 min.): 0
Cooling Sensation Score (panelists; 150 ppm coolant in paste, rinse Ca+2 542 ppm, 0 min.): 15.1
Cooling Sensation Score (panelists; 150 ppm coolant in paste, rinse Ca+2 542 ppm, 5 min.): 21.9
Cooling Sensation Score (panelists; 150 ppm coolant in paste, rinse Ca+2 542 ppm, 15 min.): 27.2
Cooling Sensation Score (panelists; 150 ppm coolant in paste, rinse Ca+2 542 ppm, 30 min.): 24.8
Cooling Sensation Score (panelists; 150 ppm coolant in paste, rinse Ca+2 542 ppm, 45 min.): 18.2
Cooling Sensation Score (panelists; 150 ppm coolant in paste, rinse Ca+2 542 ppm, 60 min.): 8.0
Potentiating effect of calcium ions on cooling intensity and duration (panelists; at the levels of coolant and calcium used): particularly evident
Duration of cooling with calcium (panelists; dentifrice followed by calcium rinse): up to 60 minutes
Sensation described by panelists (panelists; particularly when used at higher levels): “burning” sensation
Average Fluorescence (n = 3) (human TRPM8; 6.25 uM G-180 alone, Fluo-4): 14901.88 and 17511.73 and 17474.37
Activation of the TRPM8 receptor (calcium ion flux vs. control) (human TRPM8; 6.25 uM): activated the TRPM8 receptor

Source: patent US9918915B2, “Personal care compositions providing enhanced cooling sensation” (THE PROCTER & GAMBLE COMPANY, priority 2007, dated 2018)
